# According to US20260262643A1, “HERBICIDAL BENZOXAZINES” (FMC CORPORATION, priority 2022, published 2026):
# Experiments:
# [1] = test system: foxtail, giant; assay: Test A postemergence; type: in vivo, Setaria faberi
# Procedure, shortened: (§1)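 Loam/sand soil; pre-em directed soil spray at planting, post-em spray at 1–2 leaf (2–10 cm). Compound in non-phytotoxic solvent + surfactant. Greenhouse 10 d; visual injury vs untreated, 0 = no effect, 100 = complete control.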
# [2] = test system: Pigweed, Redroot; assay: Test A preemergence; type: in vivo, Amaranthus retroflexus
# Procedure, shortened: as §1
# [3] = test system: barnyardgrass; assay: Test B flooded paddy test; type: in vivo, Echinochloa crus-galli; conditions: 250 g ai/ha, Flood, 13 days, 0 to 100 scale (0 no effect, 100 complete control)
# Procedure, shortened: (§2)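 Visual scores from 0 (no effect) to 100 (complete kill) were assigned 13 days after treatment by comparison with controls. Seedlings had been treated at two leaves by adding compound to floodwater standing 3 cm deep, kept at that level in the greenhouse.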
# [4] = test system: kochia; assay: Test A preemergence; type: in vivo, Bassia scoparia
# Procedure, shortened: as §1
# [5] = test system: sedge, umbrella; assay: Test B flooded paddy test; type: in vivo, Cyperus difformis; conditions: 250 g ai/ha, Flood, 13 days, 0 to 100 scale (0 no effect, 100 complete control)
# Procedure, shortened: as §2
# [6] = test system: rice; assay: Test B flooded paddy test; type: in vivo, Oryza sativa; conditions: 250 g ai/ha, Flood, 13 days, 0 to 100 scale (0 no effect, 100 complete control)
# Procedure, shortened: as §2
# [7] = test system: ragweed; assay: Test A preemergence; type: in vivo, Ambrosia artemisiifolia
# Procedure, shortened: as §1
# [8] = test system: blackgrass; assay: Test A postemergence; type: in vivo, Alopecurus myosuroides
# Procedure, shortened: as §1
# [9] = test system: ragweed; assay: Test A postemergence; type: in vivo, Ambrosia artemisiifolia
# Procedure, shortened: as §1
# [10] = test system: Pigweed, Redroot; assay: Test A postemergence; type: in vivo, Amaranthus retroflexus
# Text: Seeds of plant species selected from barnyardgrass (Echinochloa crusgalli), blackgrass (Alopecurus myosuroides), corn (Zea mays), foxtail, giant (giant foxtail, Setaria faberi), goosegrass (Eleusine indica), kochia (Bassia scoparia), oat, wild (wild oat, Avena fatua), pigweed, palmer (palmer amaranth, palmer pigweed, Amaranthus palmeri), Pigweed, Redroot (redroot pigweed, Amaranthus retroflexus), ragweed (common ragweed, Ambrosia artemisiifolia), ryegrass, Italian (italian ryegrass, Lolium multiflorum), soybean (Glycine max), and wheat (Triticum aestivum) were planted into a blend of loam soil and sand and treated preemergence with a directed soil spray using test chemicals formulated in a non-phytotoxic solvent mixture which included a surfactant. At the same time, plants selected from these crops and weed species and also galium (catchweed bedstraw, Galium aparine) and horseweed (Erigeron canadensis) were planted in pots containing the same blend of loam soil and sand and treated with postemergence applications of test chemicals formulated in the same manner. Plants ranged in height from 2 to 10 cm and were in the one- to two-leaf stage for the postemergence treatment. Treated plants and untreated controls were maintained in a greenhouse for 10 days, after which time all treated plants were compared to untreated controls and visually evaluated for injury. Plant response ratings, summarized in Table A, are based on a 0 to 100 scale where 0 is no effect and 100 is complete control. A dash (-) response means no test result.
# [11] = test system: galium; assay: Test A postemergence; type: in vivo, Galium aparine
# Procedure, shortened: as §1
# [12] = test system: barnyardgrass; assay: Test A preemergence; type: in vivo, Echinochloa crusgalli
# Procedure, shortened: as §1
# [13] = test system: kochia; assay: Test A postemergence; type: in vivo, Bassia scoparia
# Procedure, shortened: as §1
# [14] = test system: wheat; assay: Test A postemergence; type: in vivo, Triticum aestivum
# Procedure, shortened: as §1
# [15] = test system: ducksalad; assay: Test B flooded paddy test; type: in vivo, Heteranthera limosa; conditions: 250 g ai/ha, Flood, 13 days, 0 to 100 scale (0 no effect, 100 complete control)
# Procedure, shortened: as §2
# [16] = test system: ryegrass, Italian; assay: Test A preemergence; type: in vivo, Lolium multiflorum
# Procedure, shortened: as §1
# [17] = test system: barnyardgrass; assay: Test A postemergence; type: in vivo, Echinochloa crusgalli
# Procedure, shortened: as §1
# [18] = test system: corn; assay: Test A postemergence; type: in vivo, Zea mays
# Procedure, shortened: as §1
# [19] = test system: ryegrass, Italian; assay: Test A postemergence; type: in vivo, Lolium multiflorum
# Procedure, shortened: as §1
# [20] = test system: foxtail, giant; assay: Test A preemergence; type: in vivo, Setaria faberi
# Procedure, shortened: as §1
# [21] = 125 g ai/ha, postemergence, 10 days, visual injury, 0 to 100 scale (0 no effect, 100 complete control)
# [22] = 500 g ai/ha, Postemergence, 0 to 100 scale
# [23] = 125 g ai/ha, visual injury after 10 days, 0 to 100 scale, 0 is no effect, 100 is complete control
# [24] = 500 g ai/ha, 0 to 100 scale (0 no effect, 100 complete control), 10 days
# [25] = 1000 g ai/ha, Postemergence, 0 to 100 scale
# [26] = 1000 g ai/ha, 0 to 100 scale (0 no effect, 100 complete control), 10 days
compound,measurement,setting,value
CCC1CN(C(=O)c2cccc(-n3cncn3)c2)c2cccc(Cl)c2O1 (racemic) [Compound 7],"Plant response rating, Foxtail, Giant",[1]; [21],10
same,"Plant response rating, Foxtail, Giant",[1]; [22],20
same,"Plant response rating, Pigweed, Redroot",[2]; [23],0
same,"Plant response rating, Pigweed, Redroot",[2]; [24],40
same,"Plant response rating, Barnyardgrass",[3],0
same,"Plant response rating, Kochia",[4]; [23],40
same,"Plant response rating, Kochia",[4]; [24],80
same,"Plant response rating, Sedge, Umbrella",[5],0
same,"Plant response rating, Rice",[6],0
same,"Plant response rating, Ragweed",[7]; [23],0
same,"Plant response rating, Ragweed",[7]; [24],0
same,"Plant response rating, Blackgrass",[8]; [21],0
same,"Plant response rating, Blackgrass",[8]; [22],30
same,"Plant response rating, Ragweed",[9]; [21],0
same,"Plant response rating, Ragweed",[9]; [22],0
same,"Plant response rating, Pigweed, Redroot",[10]; [21],0
same,"Plant response rating, Pigweed, Redroot",[10]; [22],30
same,"Plant response rating, Galium",[11]; [21],0
same,"Plant response rating, Galium",[11]; [22],60
same,"Plant response rating, Barnyardgrass",[12]; [23],0
same,"Plant response rating, Barnyardgrass",[12]; [24],0
same,"Plant response rating, Kochia",[13]; [21],0
same,"Plant response rating, Kochia",[13]; [22],20
same,"Plant response rating, Wheat",[14]; [21],30
same,"Plant response rating, Wheat",[14]; [22],40
same,"Plant response rating, Ducksalad",[15],0
same,"Plant response rating, Ryegrass, Italian",[16]; [23],50
same,"Plant response rating, Ryegrass, Italian",[16]; [24],50
same,"Plant response rating, Barnyardgrass",[17]; [21],10
same,"Plant response rating, Barnyardgrass",[17]; [22],20
same,"Plant response rating, Corn",[18]; [21],0
same,"Plant response rating, Corn",[18]; [22],0
same,"Plant response rating, Ryegrass, Italian",[19]; [21],0
same,"Plant response rating, Ryegrass, Italian",[19]; [22],0
same,"Plant response rating, Foxtail, Giant",[20]; [23],10
same,"Plant response rating, Foxtail, Giant",[20]; [24],80
Cc1cccc2c1OC(C)CN2C(=O)c1cccc(-n2cncn2)c1 (stereo not shown) [Compound 21],"Plant response rating, Foxtail, Giant",[1]; [25],90
same,"Plant response rating, Pigweed, Redroot",[2]; [26],100
same,"Plant response rating, Barnyardgrass",[3],0
same,"Plant response rating, Kochia",[4]; [26],70
same,"Plant response rating, Sedge, Umbrella",[5],35
same,"Plant response rating, Rice",[6],0
same,"Plant response rating, Ragweed",[7]; [26],70
same,"Plant response rating, Blackgrass",[8]; [25],80
same,"Plant response rating, Ragweed",[9]; [25],40
same,"Plant response rating, Pigweed, Redroot",[10]; [25],60
same,"Plant response rating, Galium",[11]; [25],80
same,"Plant response rating, Barnyardgrass",[12]; [26],100
same,"Plant response rating, Kochia",[13]; [25],40
same,"Plant response rating, Wheat",[14]; [25],70
same,"Plant response rating, Ducksalad",[15],65
same,"Plant response rating, Ryegrass, Italian",[16]; [26],100
same,"Plant response rating, Barnyardgrass",[17]; [25],90
same,"Plant response rating, Corn",[18]; [25],90
same,"Plant response rating, Ryegrass, Italian",[19]; [25],80
same,"Plant response rating, Foxtail, Giant",[20]; [26],100
CCC1CN(C(=O)c2cncc(-n3cncn3)c2)c2cccc(Cl)c2O1 (racemic) [Compound 6],"Plant response rating, Foxtail, Giant",[1]; [21],0
same,"Plant response rating, Foxtail, Giant",[1]; [22],10
same,"Plant response rating, Pigweed, Redroot",[2]; [23],0
same,"Plant response rating, Pigweed, Redroot",[2]; [24],20
same,"Plant response rating, Barnyardgrass",[3],0
same,"Plant response rating, Kochia",[4]; [23],0
same,"Plant response rating, Kochia",[4]; [24],0
same,"Plant response rating, Sedge, Umbrella",[5],0
same,"Plant response rating, Rice",[6],0
same,"Plant response rating, Ragweed",[7]; [23],0
same,"Plant response rating, Ragweed",[7]; [24],30
same,"Plant response rating, Blackgrass",[8]; [21],0
same,"Plant response rating, Blackgrass",[8]; [22],0
same,"Plant response rating, Ragweed",[9]; [21],0
same,"Plant response rating, Ragweed",[9]; [22],0
same,"Plant response rating, Pigweed, Redroot",[10]; [21],0
same,"Plant response rating, Pigweed, Redroot",[10]; [22],30
same,"Plant response rating, Galium",[11]; [21],0
same,"Plant response rating, Galium",[11]; [22],30
same,"Plant response rating, Barnyardgrass",[12]; [23],0
same,"Plant response rating, Barnyardgrass",[12]; [24],0
same,"Plant response rating, Kochia",[13]; [21],0
same,"Plant response rating, Kochia",[13]; [22],0
same,"Plant response rating, Wheat",[14]; [21],0
same,"Plant response rating, Wheat",[14]; [22],0
same,"Plant response rating, Ducksalad",[15],0
same,"Plant response rating, Ryegrass, Italian",[16]; [23],20
same,"Plant response rating, Ryegrass, Italian",[16]; [24],50
same,"Plant response rating, Barnyardgrass",[17]; [21],0
same,"Plant response rating, Barnyardgrass",[17]; [22],10
same,"Plant response rating, Corn",[18]; [21],0
same,"Plant response rating, Corn",[18]; [22],0
same,"Plant response rating, Ryegrass, Italian",[19]; [21],50
same,"Plant response rating, Ryegrass, Italian",[19]; [22],40
same,"Plant response rating, Foxtail, Giant",[20]; [23],0
same,"Plant response rating, Foxtail, Giant",[20]; [24],60
C[C@H]1CN(C(=O)c2cccc(-n3cnnn3)c2)c2cccc(Cl)c2O1 [Compound 115],"Plant response rating, Foxtail, Giant",[1]; [25],40
same,"Plant response rating, Pigweed, Redroot",[2]; [26],80
same,"Plant response rating, Barnyardgrass",[3],0
same,"Plant response rating, Kochia",[4]; [26],40
same,"Plant response rating, Sedge, Umbrella",[5],0
same,"Plant response rating, Rice",[6],0
same,"Plant response rating, Ragweed",[7]; [26],30
same,"Plant response rating, Blackgrass",[8]; [25],50
same,"Plant response rating, Ragweed",[9]; [25],0
same,"Plant response rating, Pigweed, Redroot",[10]; [25],30
same,"Plant response rating, Galium",[11]; [25],70
same,"Plant response rating, Barnyardgrass",[12]; [26],70
same,"Plant response rating, Kochia",[13]; [25],0
same,"Plant response rating, Wheat",[14]; [25],50
same,"Plant response rating, Ducksalad",[15],0
same,"Plant response rating, Ryegrass, Italian",[16]; [26],90
same,"Plant response rating, Barnyardgrass",[17]; [25],50
same,"Plant response rating, Corn",[18]; [25],40
same,"Plant response rating, Ryegrass, Italian",[19]; [25],60
same,"Plant response rating, Foxtail, Giant",[20]; [26],90
